Measurements published in PMC9952496, “A Novel Strategy for the Design of Aurein 1.2 Analogs with Enhanced Bioactivities by Conjunction of Cell-Penetrating Regions” (Antibiotics, 2023).
Where two headings read alike, the source gives them in different places. Residues, ends and D or L forms follow the SMILES beside them.

Assays:
[1] = tested on: NCI-H838 non-small-cell lung cancer cell line; type: cell-based, human
Procedure: (§1) The MTT test measures the anti-proliferation of the peptide by measuring MTT conversion by live cells into a formazan that cannot be dissolved in water. In this section, three cancer cell lines: human non-small-cell lung cancer cell line, NCI-H838 (ATCC-CRL-5844); human glioblastoma astrocytoma cell line, U251MG (ECACC-09063001) and human breast cancer cell line, MCF-7 (ATCC-HTB-22), were selected for the anti-proliferation study. H838 cells were cultured in Roswell Park Memorial Institute (RPMI)-1640 medium (Life Technologies, Paisley, UK) mixed with 10% (v/v) fetal bovine serum (FBS) and 1% penicillin-streptomycin (Gibco, 10,000 U/mL). U251MG and MCF-7 cells were cultured in Dulbecco’s Modified Eagle medium (DMEM) (Life Technologies, Carlsbad, CA) mixed with 10% (v/v) FBS and 1% penicillin–streptomycin (Gibco, 10,000 U/mL). The cancer cells were first seeded into the 96-well plates at a cell density of 8000 per well for 20–24 h at 37 °C. Then, the cells were starved by switching the FBS containing complete growth medium to FBS lacking serum-free medium for 4 h. Peptides were dissolved to a series of final concentrations from 10^−9 to 10^−4 M in ddH2O. After starvation, 1 μL of the peptide with 99 μL of the serum-free medium was added to the plate and then cultured for 20–24 h.; 10 µL of MTT (3-(4,5-dimethylthiazol-2-yl)-2,5-diphenyltetrazolium bromide, 5 mg/mL, Sigma, UK) were loaded into each well in the dark and incubated at 37 °C. Subsequently, the liquid in each well was removed completely before […] of DMSO was added to each well to dissolve the formazan. The plate was read at 570 nm using a Synergy HT plate reader.

[2] = tested on: U251MG glioblastoma astrocytoma cell line; type: cell-based, human
Procedure: as §1

[3] = tested on: MCF-7 breast cancer cell line; type: cell-based, human
Procedure: as §1

MRSA (ATCC 12493) = type: cell-based; settings: for MIC: ATCC 12493; for MBC: ATCC 12493, 20 h
Procedure: (§2) The antimicrobial activity evaluation was conducted by use of MIC and MBC assays, using three Gram-positive bacteria and three Gram-negative bacteria. The peptides were dissolved in dimethyl sulfoxide (DMSO) for a final concentration series from 1 to 128 µM; 20 µmol of norfloxacin was applied as the positive control, and one µL of DMSO was used as the negative control. The bacteria were inoculated in the corresponding cultural media overnight and subcultured to the desired OD value (OD = 0.23 for Gram-positive bacteria, OD = 0.4 for Gram-negative bacteria corresponding to 5 × 10^5 CFU/mL); 20 mL of culture broth and 100 µL of subcultured bacteria were mixed before being loaded onto the plate, and 1 µL of the peptide cocktail was mixed with 99 µL of diluted bacteria in 96 wells plates and then was incubated for 20 to 24 h at 37 °C. Afterward, the OD value (λ = 550 nm) of each well was detected using a Synergy HT plate reader (Biotech, Minneapolis, MN, USA). The MIC value was the lowest concentration without bacterial growth visually. Subsequently, 10 µL of the solution in each clear well was loaded onto an agar plate and cultured for 20 h. The lowest concentration without colony growth was regarded as the MBC.

E. coli (NCTC 8739) = type: cell-based; settings: for MIC: NCTC 8739; for MBC: NCTC 8739, 20 h
Procedure: as §2

[4] = tested on: P. aeruginosa (ATCC 9027); type: cell-based; settings: for MIC: ATCC 9027; for MBC: ATCC 9027, 20 h
Procedure: as §2

[5] = tested on: K. pneumoniae (ATCC 43816); type: cell-based; settings: for MIC: ATCC 43816; for MBC: ATCC 43816, 20 h
Procedure: as §2

E. faecalis (NCTC 12697) = type: cell-based; settings: for MIC: NCTC 12697; for MBC: NCTC 12697, 20 h
Procedure: as §2

[6] = tested on: S. aureus (ATCC CRM 6538); type: cell-based; settings: for MIC: ATCC CRM 6538; for MBC: ATCC CRM 6538, 20 h
Procedure: as §2

horse erythrocytes [7] = settings: red cells of horse, 2 h
Procedure: (§3) The hemolytic activity of the peptides on mammalian erythrocytes was examined using 2% defibrinated horse blood (TCS Biosciences Ltd., Buckinghamshire, UK). Firstly, the defibrinated horse blood was washed; 2 mL of horse blood was added into a 50 mL tube; then, 30 mL of sterilized PBS was added dropwise into the tube, and the tube was mixed in a shaking bed and then centrifuged at 930× g for 10 min. The procedure was repeated until the supernatant of the centrifuge tube was clear. Afterward, the blood cell pellet was dispersed to make a 4% suspension (v/v) by adding 50 mL of sterilized PBS. Peptides were dissolved using PBS to achieve final concentrations of 1–128 μM and then mixed with the blood cell suspensions in 1.5-mL tubes. The blood cell suspensions treated with 0.1% Triton X-100 and PBS were used as positive controls and negative controls, respectively. Then the peptide-blood mixture was incubated at 37 °C degrees for 2 h in an incubator. After incubation, the tubes were centrifuged at 930× g for 10 min, and 100 µL of the supernatants were loaded into wells of the 96-well plates. The absorbance was obtained by Synergy HT plate reader at 490 nm. The hemolytic activity was calculated using the formula, hemolysis = (absorbance of experimental groups − absorbance of negative control))/(absorbance of positive control − absorbance of negative control) × 100%.

[8] = tested on: Gram-negative bacteria biofilm; settings: range over Gram-negative bacteria
Procedure: (§4) The minimum biofilm inhibition and minimum biofilm eradication concentrations were obtained by use of the MBIC and MBEC assays. The anti-biofilm activity of the peptides was evaluated by use of S. aureus (ATCC 6538), MRSA (NCTC 12493), E. faecalis (NCTC 12493), E. coli (ATCC CRM 8739), K. pneumoniae (ATCC43816), and P. aeruginosa (ATCC CRM 9027).
(§5) For the MBIC assay, the bacteria were cultured in tryptic soy broth (TSB) broth with 1% glucose for Gram-positive bacteria biofilm and Luria Bertani (LB) broth with 1% glucose for Gram-negative bacteria biofilm. Bacteria were inoculated, subcultured, and diluted in the same method described before. The peptides were prepared in a concentration of 1–128 µM; 1 µL of peptide and 99 µL of subcultured bacteria were mixed in 96 well plates and cultured at 37 °C with a shear force of 200 rpm in a humid environment for 20–24 h. Then, the plate was washed with 130 µL of PBS twice, and 130 µL of methanol was added to stabilize the biofilm overnight; then, the plate was dyed with 100 mL of 0.5% crystal violet for 15 min. The stained biofilm was then washed once more and allowed to dry overnight. The stain was dissolved in acetic acid at a 30% concentration, and it was shaken for 15 min to ensure homogeneity. A Synergy HT plate reader was then used to read the plate at 595 nm. […]

Gram-positive bacteria = test: MIC assay, summary over Gram-positive bacteria; type: cell-based; settings: range over three Gram-positive bacteria
Procedure: as §2

[9] = tested on: Gram-positive bacteria biofilm; type: cell-based; settings: range over Gram-positive bacteria
Procedure: as §4, §5

horse erythrocytes [10] = test: Haemolytic activity evaluation; settings: at the peptide's MIC value for E. coli; horse erythrocytes in PBS, 2 h at 37 °C, absorbance 490 nm, Triton X-100 positive control, n = 9; listed as KIL-1
Procedure: as §3

IC50 [1] [µM]	IC50 [2] [µM]	IC50 [3] [µM]	MIC (MRSA (ATCC 12493)) [µM]	MIC (E. coli (NCTC 8739)) [µM]	MIC [4] [µM]	MIC [5] [µM]	MIC (E. faecalis (NCTC 12697)) [µM]	MIC [6] [µM]	SMILES	MBC (MRSA (ATCC 12493)) [µM]	MBC (E. coli (NCTC 8739)) [µM]	MBC [4] [µM]	MBC [5] [µM]	MBC (E. faecalis (NCTC 12697)) [µM]	MBC [6]	also measured
3.5 ± 0.74	3.4 ± 0.71	3 ± 0.76	16	8	16	>128	8	8	CC[C@H](C)[C@H](NC(=O)[C@H](CCCCN)NC(=O)[C@H](CCCCN)NC(=O)[C@@H](NC(=O)[C@@H](NC(=O)[C@H](CCCCN)NC(=O)[C@H](CCCCN)NC(=O)[C@@H](NC(=O)[C@@H](NC(=O)[C@H](CC(=O)O)NC(=O)[C@H](Cc1ccccc1)NC(=O)[C@H](CC(C)C)NC(=O)CN)[C@@H](C)CC)[C@@H](C)CC)[C@@H](C)CC)[C@@H](C)CC)C(=O)N[C@@H](C)C(=O)N[C@@H](CCC(=O)O)C(=O)N[C@@H](CO)C(=O)N[C@@H](Cc1ccccc1)C(N)=O [IK-1] (H-GLFDIIKKIIKKIAESF-NH2)	16	8	32	>128	16	8 µM	–
2.99	3.3 ± 0.63	3.4 ± 0.71	16	4	16	8	16	16	CC[C@H](C)[C@H](NC(=O)[C@H](CCCCN)NC(=O)[C@H](CCCCN)NC(=O)[C@@H](NC(=O)[C@@H](NC(=O)[C@H](CCCCN)NC(=O)[C@H](CCCCN)NC(=O)[C@@H](NC(=O)[C@@H](NC(=O)[C@H](CCCCN)NC(=O)[C@H](CCCCN)NC(=O)[C@@H](NC(=O)[C@@H](NC(=O)[C@H](CC(=O)O)NC(=O)[C@H](Cc1ccccc1)NC(=O)[C@H](CC(C)C)NC(=O)CN)[C@@H](C)CC)[C@@H](C)CC)[C@@H](C)CC)[C@@H](C)CC)[C@@H](C)CC)[C@@H](C)CC)C(N)=O [IK-3] (H-GLFDIIKKIIKKIIKKI-NH2)	32	4	16	8	32	16 µM	–
29.4 ± 0.22	34.1 ± 0.21	17.6 ± 0.79	16	8	64	32	32	16	CC[C@H](C)[C@H](NC(=O)[C@H](CC(=O)O)NC(=O)[C@H](Cc1ccccc1)NC(=O)[C@H](CC(C)C)NC(=O)CN)C(=O)N[C@H](C(=O)N[C@@H](CCCCN)C(=O)N[C@@H](CCCCN)C(=O)N[C@@H](CC(C)C)C(=O)N[C@@H](C)C(=O)N[C@@H](CCC(=O)O)C(=O)N[C@@H](CO)C(=O)N[C@@H](Cc1ccccc1)C(N)=O)[C@@H](C)CC [KLA-1] (H-GLFDIIKKLAESF-NH2)	32	16	128	32	32	16 µM	Hemolysis (horse erythrocytes [10]): almost no hemolysis was detected
3.7 ± 0.77	3.6 ± 0.18	3.2 ± 0.87	>128	8	64	16	>128	>128	CC[C@H](C)[C@H](NC(=O)[C@H](CCCCN)NC(=O)[C@H](CCCCN)NC(=O)[C@@H](NC(=O)[C@@H](NC(=O)[C@H](CCCCN)NC(=O)[C@H](CCCCN)NC(=O)[C@@H](NC(=O)[C@@H](NC(=O)[C@H](CCCCN)NC(=O)[C@H](CCCCN)NC(=O)[C@@H](NC(=O)[C@@H](NC(=O)[C@H](CC(=O)O)NC(=O)[C@H](Cc1ccccc1)NC(=O)[C@H](CC(C)C)NC(=O)CN)[C@@H](C)CC)[C@@H](C)CC)[C@@H](C)CC)[C@@H](C)CC)[C@@H](C)CC)[C@@H](C)CC)C(=O)N[C@@H](C)C(=O)N[C@@H](CCC(=O)O)C(=O)N[C@@H](CO)C(=O)N[C@@H](Cc1ccccc1)C(N)=O [IK-2] (H-GLFDIIKKIIKKIIKKIAESF-NH2)	>128	8	128	16	>128	>128 µM	–

SMILES	IC50 [1] [µM]	IC50 [2] [µM]	IC50 [3] [µM]	MIC (MRSA (ATCC 12493)) [µM]	MIC (E. coli (NCTC 8739)) [µM]	MIC [4] [µM]	MIC [5] [µM]	MIC (E. faecalis (NCTC 12697)) [µM]	MIC [6] [µM]	MBC (MRSA (ATCC 12493)) [µM]	MBC (E. coli (NCTC 8739)) [µM]	MBC [4] [µM]	MBC [5] [µM]	MBC (E. faecalis (NCTC 12697)) [µM]	MBC [6]	also measured
CC[C@H](C)[C@H](NC(=O)[C@H](CCCCN)NC(=O)[C@H](CCCCN)NC(=O)[C@@H](NC(=O)[C@@H](NC(=O)[C@H](CC(=O)O)NC(=O)[C@H](Cc1ccccc1)NC(=O)[C@H](CC(C)C)NC(=O)CN)[C@@H](C)CC)[C@@H](C)CC)C(=O)N[C@@H](C)C(=O)N[C@@H](CCC(=O)O)C(=O)N[C@@H](CO)C(=O)N[C@@H](Cc1ccccc1)C(N)=O [aurein 1.2] (H-GLFDIIKKIAESF-NH2)	26.9	38.4	25.9 ± 0.79	16	16	64	64	32	8	16	16	128	64	32	8 µM	HC50 (horse erythrocytes [7]): around 30 μM; Hemolysis (horse erythrocytes [7]): 20.56%; concentration effective in prevention of biofilm formation (MBIC) [8]: 64 to 128 µM; MICs against Gram-positive bacteria (Gram-positive bacteria): 8 to 32 µM
CC[C@H](C)[C@H](NC(=O)[C@H](CC(=O)O)NC(=O)[C@H](Cc1ccccc1)NC(=O)[C@H](CC(C)C)NC(=O)CN)C(=O)N[C@H](C(=O)N[C@@H](CCCCN)C(=O)N[C@@H](CCCCN)C(=O)N[C@@H](CC(C)C)C(=O)N[C@@H](C)C(=O)N[C@@H](CCCCN)C(=O)N[C@@H](CC(C)C)C(=O)N[C@@H](C)C(=O)N[C@@H](CCC(=O)O)C(=O)N[C@@H](CO)C(=O)N[C@@H](Cc1ccccc1)C(N)=O)[C@@H](C)CC [KLA-2] (H-GLFDIIKKLAKLAESF-NH2)	4.6 ± 0.12	5 ± 0.12	3.55	4	2	16	4	16	–	4	2	16	4	16	2/2 μM	MBIC [9]: 2 to 16 µM
